Reference: patent US6593358B1, “Thienyl-pyrazoles and their use for controlling pests” (Nihon Bayer Agrochem K.K., priority 1999, dated 2003)

Key:
[1] = test system: Meloidogyne incognita; assay: Test against Meloidogyne spp. (soil pot test); type: in vivo; conditions: soil contaminated with Meloidogyne incognita, final concentration 50 ppm; tomato (Kurihara) in pots, greenhouse 4 weeks; from root knot index
Procedure: Test Against Meloidogyne spp. (Soil Pot Test)
Preparation of Test Agent:
1 Part of the active compound is impregnated to 99 parts of pumice to obtain fine granules.
The active compound prepared as mentioned above is added to soil contaminated with Meloidogyne incognita to a final concentration of 50 ppm and then homogeneously mixed by stirring. Then a pot (1/5000 are) was filled with the soil. About 20 seeds of tomato (variety: Kurihara) were sown per pot. After cultivation in a greenhouse for 4 weeks, they were carefully pulled out not to damage the root and the root knot index and the controlling effect of the compound tested were determined as follows:
Degree of damage 0: No knot was formed (Complete control).
1: A few knots were formed.
2: Knots were formed to a medium extent.
3: Knots were formed to an intense extent.
4: Knots were formed to the most intense extent (which corresponds to non-treatment).
Based on the degree of damage acording to the aforementioned standard (0-4), the root knot index can be determined as follows (Equation 1) [formula]
The controlling effect which can be achieved by applying compounds according to the present invention can then be determined as follows (Equation 2): [formula]
The evaluation of the controlling effect towards nematodes is then done by connecting the values of the controlling effect with the following standards (a-d): […]

SMILES	melting point [°C]	Evaluation of controlling effect [1]
CCCCCCc1cc(-c2cccs2)n[nH]1	53 to 55	–
ClCCOc1cc(-c2cccs2)n[nH]1	134 to 138	–
Oc1cc(-c2cccs2)n[nH]1	144 to 146	–
Cc1cc(-c2cccs2)n[nH]1	133 to 135	–
CCCCCc1cc(-c2cccs2)n[nH]1 [Compound 83, 3-(2-thienyl)-5-n-pentylpyrazole]	68 to 73	a (Controlling effect 100-71%)
CCCCc1cc(-c2cccs2)n[nH]1 [Compound 82, 3-(2-thienyl)-5-n-butylpyrazole]	47 to 48	a (Controlling effect 100-71%)
